Patent US8071535B2, “Guanidinium derivatives for improved cellular transport” (The Regents of the University of California, priority 2003, dated 2011)
Marks after values point to notes of the source that are not given here.

How the values were obtained:
HeLa cells [1] = experiment: Cellular uptake by FACS, HeLa cells; assay type: cell-based, human; conditions: 1 μM of each compound for 0.5 hr; average intensity of 2,000 individual cells; about 10-fold higher instrumental gain than 10T1/2
Experimental: (§1) 10T½ cells, an adherent non-transformed mouse fibroblast cell line, were purchased from ATCC and used before their 20th passage. HeLa cells, a common human cancer cell line, were a gift from Dr. Susan S. Taylor. Both cell lines were cultured in Dulbecco's modified eagle medium containing 10% fetal bovine serum at 37° C. in an 8% CO2 environment. For each experiment, cells were seeded onto 4 cm tissue culture plates (Nunc) and allowed to grow overnight to […].
(§2) Compounds 1-5 identified in Table 1, below (0.5-1 μM), were added to each dish and incubated at 37° C./8% CO2 for 0.5-1 hr. Cells were then washed once in PBS, trypsinized with 500 μl ATV solution (Gibco) for 3 minutes, pelleted in a fixed angle centrifuge for 5 minutes at 5,000×G, then brought up in 1 mL PBS. Each sample was quickly (within 5 minutes) analyzed on a FACS VantageSE cell sorter (Becton-Dickinson) using the 488 nm argon/krypton laser line and a 530 nm band pass emission filter. 2,000-10,000 cells were counted per sample.
(§3) In a typical experiment, cell cultures were treated with 0.5-5 μM of each compound for 0.5-1 hr, washed twice with buffer, cleaved with trypsin, and quantified for fluorescence at 530 nm.

10T½ cells [2] = experiment: Cellular uptake by FACS, 10T½ cells; assay type: cell-based, mouse; conditions: for Mean Fluorescence Intensities of Treated Cells According to FACS, 10T1/2: 0.5 μM of each compound for 1 hr, average intensity of 10,000 individual cells; for Cellular uptake (in words) / Cellular uptake / transport efficiency compared to poly-Arg peptide BODIPY-Cys(Arg)9 (5): FACS; for Cellular uptake (in words): slightly above the autofluorescence of the cell itself; for Cellular uptake / transport efficiency compared to poly-Arg peptide BODIPY-Cys(Arg)9 (5): in words; for Enhancement of cellular uptake upon guanidinylation: relative to autofluorescence, guanidinoglycoside-BODIPY vs aminoglycoside-BODIPY
Experimental: as §1, §2
(§4) Examples of FACS histograms are presented in FIG. 3, which illustrates the fluorescence intensity versus cell count for 10,000 individual 10T½ cells following a 1 hour incubation with 0.5 μM of: (A) tobra-BODIPY (Red) and guanidine-tobra-BODIPY (White); (B) neo-BODIPY (Red) and guanidine-neo-BODIPY (White); (C) BODIPY-Cys(Arg)9 (Red), or guanidine-neo-BODIPY (White); and (D) uptake of BODIPY-Cys(Arg)9 inhibited by guanidine-neomycin B (6) at 0 μM (Red), 10 μM (Black), 200 μM (Green).
as §3

10T½ cells [3] = experiment: Competition experiment: uptake of BODIPY-Cys(Arg)9 in presence of unlabeled guanidino-neomycin B (6), FACS; assay type: cell-based, mouse
Experimental: as §2, §4

[4] = tested on: Rev-Response-Element (RRE); conditions: in words; cited from earlier work
HeLa cells [5] = experiment: Scanning confocal fluorescence microscopy, cellular localization; assay type: cell-based, human; conditions: confocal cross sections of living cells; 5 μM, 30 minute treatment
Experimental: The uptake of BODIPY-containing glycosides by two different eukaryotic cell lines was also studied using fluorescence microscopy.
as §3
(A) and (B) show cross-sectional images of two individual HeLa cells in solution following a 30 minute treatment with 5 μM of guanidine-neo-BODIPY and cleavage with trypsin.
Microscopy experiments have been conducted using both fluorescein-labeled and BODIPY-labeled guanidinoglycosides. The relative intensities of individual cells, following treatment with either fluorescent aminoglycosides or guanidinoglycosides are consistent with the trends from FACS experiments.

tobra-BODIPY hydrochloride [Tobra-BODIPY (1)]
Mean Fluorescence Intensities of Treated Cells According to FACS, HeLa (HeLa cells [1]): 1,000 | Mean Fluorescence Intensities of Treated Cells According to FACS, 10T1/2 (10T½ cells [2]): 60 | Cellular uptake (in words) (10T½ cells [2]): poor cellular uptakes

BODIPY-Cys(Arg)9 hydrochloride (CRRRRRRRRR; N-acetyl, C-amide, BODIPY on Cys) [BODIPY-Cys (Arg)9 (5), poly-Arg transduction peptide ace-…-am labelled with BODIPY on Cys]
Mean Fluorescence Intensities of Treated Cells According to FACS, HeLa (HeLa cells [1]): 2,000 | Mean Fluorescence Intensities of Treated Cells According to FACS, 10T1/2 (10T½ cells [2]): 280 | Mean Fluorescence Intensity, 10T1/2, in presence of 10 μM (6) (10T½ cells [3]; 0.5 μM (5) + 10 μM guanidino-neomycin B (6), 1 hr): 110 | Mean Fluorescence Intensity, 10T1/2, in presence of 50 μM (6) (10T½ cells [3]; 0.5 μM (5) + 50 μM guanidino-neomycin B (6), 1 hr): 90 | Mean Fluorescence Intensity, 10T1/2, in presence of 200 μM (6) (10T½ cells [3]; 0.5 μM (5) + 200 μM guanidino-neomycin B (6), 1 hr): 70

guanidino-tobramycin
Affinity to the RRE [4]: substantial affinity

NC(N)=NC[C@@H]1O[C@H](O[C@H]2[C@@H](O)[C@H](O[C@@H]3[C@H](O)[C@@H](N=C(N)N)C[C@@H](N=C(N)N)[C@H]3O[C@H]3O[C@H](CN=C(N)N)[C@@H](O)[C@H](O)[C@H]3N=C(N)N)O[C@@H]2CO)[C@H](N=C(N)N)[C@@H](O)[C@@H]1O [guanidine-neomycin B (6, guanidino-neomycin B]
Inhibition of the transport of BODIPY-Cys(Arg)9 into cells (10T½ cells [3]; FACS, unlabeled competitor 10-200 μM, in words): effectively inhibits | Affinity to the RRE [4]: substantial affinity

guainidino-tobra-BODIPY hydrochloride [Guanidino-Tobra-BODIPY (2)]
Mean Fluorescence Intensities of Treated Cells According to FACS, HeLa (HeLa cells [1]): 2,100 | Mean Fluorescence Intensities of Treated Cells According to FACS, 10T1/2 (10T½ cells [2]): 240 | Cellular uptake / transport efficiency compared to poly-Arg peptide BODIPY-Cys(Arg)9 (5) (10T½ cells [2]): approximately the same transport efficiency

guanidino-Neo-BODIPY hydrochloride [Guanidino-Neo-BODIPY (4)]
Mean Fluorescence Intensities of Treated Cells According to FACS, HeLa (HeLa cells [1]): 7,900 | Mean Fluorescence Intensities of Treated Cells According to FACS, 10T1/2 (10T½ cells [2]): 430 | Cellular uptake / transport efficiency compared to poly-Arg peptide BODIPY-Cys(Arg)9 (5) (10T½ cells [2]): better cellular uptake | Cellular localization (HeLa cells [5]): two distinct types of cellular localization

NC[C@@H]1O[C@H](O[C@H]2[C@@H](O)[C@H](O[C@@H]3[C@@H](O)[C@H](N)C[C@H](N)[C@H]3O[C@H]3O[C@H](CN)[C@@H](O)[C@H](O)[C@H]3N)O[C@@H]2CO)[C@H](N)[C@@H](O)[C@@H]1O [neomycin B, reference compound]
Enhancement of cellular uptake upon guanidinylation (10T½ cells [2]): approximately 20 fold

neo-BODIPY hydrochloride [Neo-BODIPY (3)]
Mean Fluorescence Intensities of Treated Cells According to FACS, HeLa (HeLa cells [1]): ~1,400^(e) | Mean Fluorescence Intensities of Treated Cells According to FACS, 10T1/2 (10T½ cells [2]): 60 | Cellular uptake (in words) (10T½ cells [2]): poor cellular uptakes

NC[C@H]1O[C@H](O[C@H]2[C@H](O)[C@@H](O[C@H]3O[C@H](CO)[C@@H](O)[C@H](N)[C@H]3O)[C@H](N)C[C@@H]2N)[C@H](N)C[C@@H]1O [tobramycin, reference compound]
Enhancement of cellular uptake upon guanidinylation (10T½ cells [2]): approximately 10 fold
